Test results: patent publication US20110046147A1, “17BETA-HYDROXYSTEROID DEHYDROGENASE TYPE 1 INHIBITORS FOR THE TREATMENT OF HORMONE-RELATED DISEASES” (UNIVERSITAT DES SAARLANDES, priority 2007, published 2011)

What was measured:
[1] = molecular target: T1, 17β-HSD2 (Homo sapiens, UniProt P37059); assay: Inhibition of 17β-HSD2 (estradiol to estrone, radio-HPLC); format: biochemical; settings: human placenta microsome fraction, 500 nM estradiol, NAD+ 1500 μM
T1 construct: from tissue; host or cells: human placenta, microsome fraction
T1 sequence (P37059 1-387): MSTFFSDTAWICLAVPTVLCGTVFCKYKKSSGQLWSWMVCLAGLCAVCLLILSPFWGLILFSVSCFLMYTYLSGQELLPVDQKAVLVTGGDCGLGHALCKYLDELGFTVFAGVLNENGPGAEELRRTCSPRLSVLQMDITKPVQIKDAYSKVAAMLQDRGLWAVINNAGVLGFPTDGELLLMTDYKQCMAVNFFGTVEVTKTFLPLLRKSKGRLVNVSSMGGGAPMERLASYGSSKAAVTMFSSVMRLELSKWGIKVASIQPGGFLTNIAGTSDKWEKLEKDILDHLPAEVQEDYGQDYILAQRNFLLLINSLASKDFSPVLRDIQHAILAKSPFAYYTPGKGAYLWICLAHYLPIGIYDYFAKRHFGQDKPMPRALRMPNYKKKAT

[2] = molecular target: T2, 17β-HSD1 (Homo sapiens, UniProt P14061); assay: Inhibition of 17β-HSD1 (estrone to estradiol, radio-HPLC); format: biochemical; settings: for IC50: human placenta enzyme, 500 nM estrone, NADH 500 μM; for Selectivity IC50 (17β-HSD2)/IC50 (17β-HSD1): ratio of IC50 values
T2 construct: In both cases, human placenta served as the enzyme source; from tissue; host or cells: human placenta
T2 sequence (P14061 1-328): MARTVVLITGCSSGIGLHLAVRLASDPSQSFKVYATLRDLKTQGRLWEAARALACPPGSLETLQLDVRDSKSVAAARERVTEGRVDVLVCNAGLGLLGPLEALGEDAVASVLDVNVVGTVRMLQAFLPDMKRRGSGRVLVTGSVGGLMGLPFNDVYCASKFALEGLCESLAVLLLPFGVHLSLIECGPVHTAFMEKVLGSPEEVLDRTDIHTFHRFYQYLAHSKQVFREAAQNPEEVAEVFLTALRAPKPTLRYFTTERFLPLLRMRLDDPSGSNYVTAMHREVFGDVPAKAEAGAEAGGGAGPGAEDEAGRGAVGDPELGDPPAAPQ

[3] = tested on: CaCo-2 cells; assay: CaCo2 transport assay; format: in vitro ADME; settings: 50 μM in donor compartment
Protocol: Performance of selected compounds in a CaCo2 assay: Caco-2 cell culture and transport experiments were performed according to Yee (Yee, S., Pharm. Res., 14(6): 763-766 (1997)), but slight modifications were introduced. The cultivation times were reduced from 21 to 10 days by increasing the sowing density from 6.3·10^4 to 1.65·10^5 cells per well. […] The initial concentration of the compounds in the donor compartment was 50 μM (in buffer with 1% ethanol or DMSO). Samples were taken from the acceptor side after 60, 120 and 180 min and from the donor side after 0 and 180 min. For glycoprotein P (P-gp) studies, bidirectional experiments were performed. The absorptive and secretory permeabilities (Papp (a-b) and Papp (b-a)) were determined. Thus, erythromycin was used as a substrate, and verapamil was used as an inhibitor of P-gp. Each experiment was performed in triplicate. The integrity of the monolayer was determined by means of TEER (transepithelial electric resistance) and the permeability for each assay was determined using Lucifer Yellow. All samples of the CaCo-2 transport experiments were analyzed by means of LC/MS/MS after dilution with buffer (1:1 with 2% acetic acid). The apparent permeability coefficient (Papp) was calculated by means of the formula given below, where dQ/dt represents the recovery rate of the mass in the acceptor compartment, A represents the surface area of the transwell membrane, and c0 represents the initial concentration in the donor compartment.

[4] = molecular target: T3, CYP2C9 (Homo sapiens, UniProt P11712); assay: Inhibition of hepatic CYP enzymes: CYP2C9; format: biochemical; settings: read-out: CYP2C9 IC50 (mean ± SD)
T3 construct: purchased Becton Dickinson GmbH (Heidelberg)
Description: (§1) Drug interactions (inhibition of hepatic CYP enzymes): The inhibition of six human hepatic cytochrome P450 enzymes by selected compounds was examined by means of the kit supplied by Becton Dickinson GmbH (Heidelberg).

[5] = molecular target: T4, CYP2D6 (Homo sapiens, UniProt P10635); assay: Inhibition of hepatic CYP enzymes: CYP2D6; format: biochemical; settings: read-out: CYP2D6 IC50 (mean ± SD)
T4 construct: purchased Becton Dickinson GmbH (Heidelberg)
Description: as §1

T4 sequence (P10635 whole entry): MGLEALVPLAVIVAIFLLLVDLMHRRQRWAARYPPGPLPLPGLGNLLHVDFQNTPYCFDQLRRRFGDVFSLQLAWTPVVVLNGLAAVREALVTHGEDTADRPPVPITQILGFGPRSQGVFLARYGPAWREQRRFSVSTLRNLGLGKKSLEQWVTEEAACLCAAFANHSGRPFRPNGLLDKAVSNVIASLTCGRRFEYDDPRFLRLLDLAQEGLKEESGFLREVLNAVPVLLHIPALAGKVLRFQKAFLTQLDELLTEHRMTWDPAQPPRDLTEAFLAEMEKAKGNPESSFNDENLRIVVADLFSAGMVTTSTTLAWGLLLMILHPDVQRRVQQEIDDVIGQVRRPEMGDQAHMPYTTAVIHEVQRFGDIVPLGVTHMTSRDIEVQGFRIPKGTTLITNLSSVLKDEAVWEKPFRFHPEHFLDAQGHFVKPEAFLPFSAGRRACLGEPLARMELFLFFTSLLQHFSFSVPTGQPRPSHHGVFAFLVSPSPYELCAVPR
T3 sequence (P11712 whole entry): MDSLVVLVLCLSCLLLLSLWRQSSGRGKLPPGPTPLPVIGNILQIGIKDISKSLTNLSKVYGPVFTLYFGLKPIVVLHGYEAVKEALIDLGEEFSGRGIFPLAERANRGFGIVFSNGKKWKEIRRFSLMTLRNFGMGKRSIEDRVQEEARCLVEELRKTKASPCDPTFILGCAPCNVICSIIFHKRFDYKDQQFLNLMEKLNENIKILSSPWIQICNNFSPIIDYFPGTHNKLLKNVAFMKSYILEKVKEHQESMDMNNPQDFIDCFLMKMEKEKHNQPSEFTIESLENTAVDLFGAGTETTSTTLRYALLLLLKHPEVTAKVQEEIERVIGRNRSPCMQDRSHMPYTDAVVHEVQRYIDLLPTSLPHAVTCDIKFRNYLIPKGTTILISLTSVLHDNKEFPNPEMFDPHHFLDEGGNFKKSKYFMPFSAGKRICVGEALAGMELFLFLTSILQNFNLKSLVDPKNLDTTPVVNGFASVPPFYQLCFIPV

Row | IC50 [1] | IC50 [2] | Selectivity IC50 (17β-HSD2)/IC50 (17β-HSD1) [2] | Permeability (class in words) [3] | IC50 [4] | IC50 [5] | Papp [cm/sec ± rel. SD] [3] | SMILES
1 | 1800 nM | 3400 nM | 0.5 | high | 2980 ± 20 nM | 6990 ± 20 nM |  | Oc1ccc(-c2ccsc2-c2cccc(O)c2)cc1 [Compound 28, 3-[3-(4-Hydroxyphenyl)-2-thienyl]phenol]
2 | 2300 nM | 110 nM | 21 | high | 1940 ± 100 nM | 22000 ± 290 nM | (12.5 ± 9.0) · 10^−6 cm/sec | Oc1cccc(-c2ccc(-c3cccc(O)c3)cc2)c1 [Compound 42, [1,1′,4′,1″]Terphenyl-3,3′-diol]
